From patent US8372850B2, “Aminopyridines and aminopyrimidines useful as inhibitors of protein kinases” (Vertex Pharmaceuticals Incorporated, priority 2006, dated 2013)
pKi: −log10 of the molar value.

Target: T1, GSK-3β(AA 1-420) (Homo sapiens, UniProt P49841)
T1 construct: GSK-3β(AA 1-420)
Experiment: GSK-3 Inhibition Assay (standard coupled enzyme system)
Assay type: biochemical
Conditions: 20 μM ATP, 300 μM peptide, 20 nM GSK-3β, 30° C.
Protocol: Compounds of the present invention were screened for their ability to inhibit GSK-3β(AA 1-420) activity using a standard coupled enzyme system (Fox et al., Protein Sci. 1998, 7, 2249). Reactions were carried out in a solution containing 100 mM HEPES (pH 7.5), 10 mM MgCl2, 25 mM NaCl, 300 μM NADH, 1 mM DTT and 1.5% DMSO. Final substrate concentrations in the assay were 20 μM ATP (Sigma Chemicals, St Louis, Mo.) and 300 μM peptide (American Peptide, Sunnyvale, Calif.). Reactions were carried out at 30° C. and 20 nM GSK-3β. Final concentrations of the components of the coupled enzyme system were 2.5 mM phosphoenolpyruvate, 300 μM NADH, 30 μg/ml pyruvate kinase and 10 μg/ml lactate dehydrogenase.
An assay stock buffer solution was prepared containing all of the reagents listed above with the exception of ATP and the test compound of the present invention. The assay stock buffer solution (175 μl) was incubated in a 96 well plate with 5 μl of the test compound of the present invention at final concentrations spanning 0.002 μM to 30 μM at 30° C. for 10 min. Typically, a 12-point titration was conducted by preparing serial dilutions (from 10 mM compound stocks) with DMSO of the test compounds of the present invention in daughter plates. The reaction was initiated by the addition of 20 μl of ATP (final concentration 20 μM). Rates of reaction were obtained using a Molecular Devices Spectramax plate reader (Sunnyvale, Calif.) over 10 min at 30° C. The Ki values were determined from the rate data as a function of inhibitor concentration.

T1 sequence (P49841 whole entry, species assumed, the tested form may be a part): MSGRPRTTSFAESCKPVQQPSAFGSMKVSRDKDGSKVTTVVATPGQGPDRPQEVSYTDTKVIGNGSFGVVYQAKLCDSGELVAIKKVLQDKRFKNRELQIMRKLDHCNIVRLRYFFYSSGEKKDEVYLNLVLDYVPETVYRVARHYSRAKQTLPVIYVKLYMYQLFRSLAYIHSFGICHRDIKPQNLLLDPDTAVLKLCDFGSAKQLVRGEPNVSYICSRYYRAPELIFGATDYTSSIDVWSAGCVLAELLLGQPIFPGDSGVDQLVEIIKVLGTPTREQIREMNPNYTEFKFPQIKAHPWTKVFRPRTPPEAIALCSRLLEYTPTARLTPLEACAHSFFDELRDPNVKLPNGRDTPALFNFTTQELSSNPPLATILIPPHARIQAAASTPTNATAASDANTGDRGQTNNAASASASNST

Row | pKi | Compound
1 | 6.30 to 7.30 | Cc1cc(Nc2cc(N3CC(F)(F)C3)nc(-c3ccccc3Cl)n2)n[nH]1 [Compound I-4]
2 | 6.30 to 7.30 | Cc1cc(Nc2cc(N3CCC3)nc(-c3ccccc3Cl)n2)n[nH]1 [Compound I-1, 6-(Azetidin-1-yl)-2-(2-chlorophenyl)-N-(5-methyl-1H-pyrazol-3-yl)pyrimidin-4-amine]
3 | 6.30 to 7.30 | Cc1cc(Nc2cc(C3CNC3)nc(-c3ccccc3Cl)n2)n[nH]1 [Compound I-12, 6-(Azetidin-3-yl)-2-(2-chlorophenyl)-N-(5-methyl-1H-pyrazol-3-yl)pyrimidin-4-amine]

Further lines, the compound ahead of its results:

Row | Compound | pKi
4 | Cc1cc(Nc2cc(N3CC(F)(C4CC4)C3)nc(-c3ccccc3Cl)n2)n[nH]1 [Compound I-5] | 6.30 to 7.30
5 | Cc1cnc(Nc2cc(N3CCC3)nc(-c3ccccc3Cl)n2)s1 [Compound I-2] | > 7.30
6 | OC1(C2CC2)CN(c2cc(Nc3n[nH]c4ccc(F)cc34)nc(-c3ccccc3Cl)n2)C1 [Compound I-10] | 6.30 to 7.30
7 | Cc1cc(Nc2cc(N3CC(O)(C(C)(C)C)C3)nc(-c3ccccc3Cl)n2)n[nH]1 [Compound I-8] | 5.30 to 6.00
8 | OC1(C2CC2)CN(c2cc(Nc3n[nH]c4ncc(F)cc34)nc(-c3ccccc3Cl)n2)C1 [Compound I-11] | > 7.30
9 | Fc1cnc2[nH]nc(Nc3cc(N4CCC4)nc(-c4ccccc4Cl)n3)c2c1 [Compound I-3] | > 7.30
10 | Fc1cnc2[nH]nc(Nc3cc(N4CC(F)(C5CC5)C4)nc(-c4ccccc4Cl)n3)c2c1 [Compound I-9] | > 7.30

Same assay, conditions: range printed with mixed units (500 nM to 1 uM); 20 μM ATP, 30° C.

Row | pKi | Compound
11 | 6.00 to 6.30 | Cc1cc(Nc2cc(N3CC(O)(C4CC4)C3)nc(-c3ccccc3Cl)n2)n[nH]1 [Compound I-6]
12 | 6.00 to 6.30 | Cc1cc(Nc2cc(N3CC(C)(O)C3)nc(-c3ccccc3Cl)n2)n[nH]1 [Compound I-7]

System: rat brains after transient middle cerebral artery occlusion (MCAO)
Experiment: not given
Conditions: cited from earlier work

Row | Compound | infarct size
13 | IGF-1: IGF-1 (insulin growth factor-1), a known GSK-3 inhibitor | reduced infarct size
